Legend:
[1] = test system: TGFβ1 production in cellular chondrocyte cultures; experiment: Stimulation of TGFβ1 production in chondrocyte cultures (CCL-64 growth inhibition bioassay of conditioned medium); assay type: cell-based; conditions: calf chondrocyte primary cultures, compound 10^−5 M, 24 hours; untreated control = 100
Procedure: The primary cultures have been kept in a DMEM culture medium (Dulbecco's modified Eagle medium) (high glucose) containing bovine fetal serum (10% vol.) and antibiotics at 37° C. and in air/CO2 atmosphere (95%/5% vol.) until reaching the culture confluence. A cell sample is kept as a control and not treated with the tested compounds.
At the end the cells have been washed 3 times with a medium free from serum and added with BSA (bovine serum albumin, 200 μg/ml) for 5, 30 and 60 minutes respectively and then incubated in a medium devoid of serum (1 ml) for further 6 hours. The conditioned medium has been collected, centrifuged and kept at −70° C. until the use.
Before the experiment, 0.5 ml of cellular culture supernatant have been acidified with HCl (0.1 ml, 1 N) and incubated at room temperature for 10 min, then neutralized with NaOH/HEPES (0.1 ml NaOH 1.2N/0.5 M).
CCL-64 cellular cultures lines in a proliferative state have been prepared as described in Jennings J. C., J. Cell. Physiol.
At the twentieth hour ^3H-timidine (0.5 μCi/ml), a cellular proliferation marker, which is incorporated in the DNA of the new cells has been added to the cultures. The cultures have then been incubated for 4 hours.
At the end the cells have been cold fixed (5° C.) with trichloroacetic acid 5% v/v, washed with the same solution and dissolved in NaOH (0.1 N). […] From the amount of incorporated timidine it is shown the amount of TGF-β1. The data reported in Table 1 are expressed in percentage of TGFβ1 produced in the samples treated with the tested compounds, compared with the untreated control.

[2] = test system: proteoglycan synthesis in human chondrocytes; experiment: Proteoglycan synthesis in TNFα-treated human chondrocytes ([35S]-sulfate incorporation); assay type: cell-based; conditions: TNFα 80 ng/ml, compound 100 μM, 24 hours, control without TNFα = 100, vehicle + TNFα = 22
Procedure: (§1) Human chondrocytes were isolated by collagenase digestion from knee cartilage collected from patients undergoing knee replacement surgery. Only primary culture was used to avoid phenotype change of human chondrocytes. TNFα (80 ng/ml) was added to all but control cells. Test compounds were dissolved at a concentration 0.02% (w/v) in DMSO (vehicle).
(§2) The test compounds were incubated with cells at a 100 μM concentration for 24 hours.
Proteoglycan synthesis was determined by [^35S]-sulfate incorporation. Cells and supernatant were extracted with 4M guanidinium chloride and purified by Sephadex colums chromatography. The amount of [^35S]-sulfate was measured by liquid scintillation counter. Results were normalized by the amount of Dna in the sample and expressed as CPM/μg DNA (CPM=count per minute).

[3] = test system: human chondrocytes; experiment: Cell proliferation of TNFα-treated human chondrocytes ([3H]-thymidine incorporation); assay type: cell-based; conditions: TNFα 80 ng/ml, compound 100 μM, 24 hours, control without TNFα = 100, vehicle + TNFα = 50
Procedure: as §1, §2
Cell proliferation was determined by measuring [^3H]-thymidine incorporated into newly synthesized DNA. Cell viability was assessed by MTS assay kit.

[4] = test system: type II collagen mRNA; experiment: Type II collagen mRNA steady-state levels in human articular chondrocytes; assay type: cell-based; conditions: human articular chondrocytes in hypoxia (5% v/v O2), with or without IL-1β, compound 10^−5M, 48 h
Procedure: The steady-state levels of mRNA for type II collagen and TGF-β type II receptor (TβRII) was evaluated in human articular chondrocytes (HAC), cultured in hypoxia (5% v/v O2). The cells were treated or not with interleukin-1β (IL-1β) an agent favouring OA pathology, and NO-NSAIDs, or the corresponding NSAIDs at 10^−5M for 48 h.

[5] = test system: IL-6 release in human monocytes; experiment: IL-6 release in human monocytes (ex-vivo study after oral subacute treatment); conditions: healthy subjects, 100 mg twice a day oral for seven days; monocytes 4 hours after last treatment, 10 μg/ml endotoxin 24 hours, ELISA; placebo = 100
Procedure: Twenty-four healthy subjects of both sexes were enrolled and randomised into three groups of 8 subjects each. Each group was administered as it follows: • placebo: vehicle (0.5% aqueous suspension of carboxymethyl cellulose); • flurbiprofen: 100 mg twice a day; • NO-flurbiprofen: 100 mg twice a day; the compound was prepared as described in example F1. The treatment lasted seven consecutive days (oral subacute treatment).
Monocytes from whole blood samples obtained before and 4 hours after the last treatment were prepared. Monocytes were extracted by positive selection using paramagnetic beads loaded with anti-CD11 antibody. Cells were then incubated with 10 μg/ml endotoxin for 24 hours, and IL-6 released in cell supernatant measured by ELISA assay.
Results are given as % in the confront of IL-6 release obtained in the placebo group.

[6] = test system: TGF-β release in mouse spleen lymphocytes; experiment: TGF-β release in mouse spleen lymphocytes (in vitro, ELISA); assay type: cell-based; conditions: 10 μg/ml endotoxin, compound 50 μM, 24 hours, placebo = 100
Procedure: (§3) Spleen lymphocytes were prepared as it follows. Mice were killed by an overdose of ether, and spleens were collected and maintained in a sterile RPMI medium (Sigma-Aldrich) containing 0.5% (vol/vol) L-glutamine and 0.5% (vol/vol) sterile endotoxin-free fetal calf serum (FCS). The spleens were opened and the content (whole cells) collected and diluted with RPMI.
(§4) After repeated washings, cells were suspended in 10 ml of RPMI containing 1% (vol/vol) streptomycin and 1% (vol/vol) penicillin. The suspension was then incubated at 37° C. for 24 hours, in an O2/CO2 atmosphere (95%/5% v/v). Monocytes were eliminated by adhesion, and lysis of red cells was obtained by suspension in a solution 0.15 mol/liter NH4Cl and 1 mmol/liter KHCO3. The resulting lymphocytes were resuspended in RPMI-FCS, incubated for 30 minutes at 37° C. with anti-FAS, anti-FASL, or anti-IL2 receptor monoclonal antibodies, and then washed twice with RPMI-FCS. Cells were then incubated with the FITC-conjugated secondary antibody for 30 mins at 4° C., washed twice, and resuspended in PBS/formaldehyde (0.5%). Control samples were treated with the FITC-conjugated secondary antibody only. Stained cells were analysed on a flow cytofluorimeter. Cells were gated using forward vs side scatter to exclude dead cells and debris.
(§5) Cells were transferred in plate and then 10 μg/ml endotoxin and each of the following compounds at a concentration of 50 μM added: • Placebo (no compound added); • Flurbiprofen; • NO-Flurbiprofen; the compound was prepared as described in ex. F1, above; • Indomethacin; • NO-indomethacin; the compound was prepared as described in the example on page 45 of WO 98/09948; • then it was incubated for 24 hours • IL-6 and TGF-β released in cell supernatant was measured by ELISA assay, taking as 100% release that of placebo group.

[7] = test system: IL-6 release in mouse spleen lymphocytes; experiment: IL-6 release in mouse spleen lymphocytes (in vitro, ELISA); assay type: cell-based; conditions: 10 μg/ml endotoxin, compound 50 μM, 24 hours, placebo = 100
Procedure: as §3, §4, §5

[8] = Hepatic tolerability in rats (plasma AST, ALT, bilirubin); assay type: in vivo; conditions: i.p., NO-paracetamol 1.4 g/Kg or paracetamol 1.16 g/Kg, plasma 6 hours after administration, % of control group (100%)
Procedure: Groups of No. 10 rats have been treated i.p. with NO-paracetamol (1.4 g/Kg i.p.) or with paracetamol (1.16 g/Kg) or with the carrier (0.9% w/v NaCl containing 20% v/v di tween-20) (control group).
After 6 hours from the administration, the animals have been sacrificed, the blood has been collected and the plasma analyzed to determine the aspartate aminotransferase (AST) and alanine aminotransferase (ALT) and bilirubin concentrations. The results are reported in Table 2 and have been expressed in pecentage with respect to the values obtained in the control group (100%).

SMILES | % of produced TGFβ1 [1] | Proteoglycan synthesis % in the confront of control [2] | TGF-β release % in the confront of placebo [6] | IL-6 release % in the confront of placebo [7] | further results
CC(=O)Oc1ccccc1C(=O)O [Aspirin] | 150% | – | – | – | –
CC(C(=O)O)c1ccc(-c2ccccc2)c(F)c1 (stereo not drawn) [Flurbiprofen] | 120% | 26% | 115% | 100% | Cell proliferation % in the confront of control [3]: 53%; Increase of type II collagen mRNA levels [4]: no significant effect; IL-6 release % in the confront of placebo [5]: 100%
CC(C)Cc1ccc(C(C)C(=O)O)cc1 (stereo not drawn) [Ibuprofen] | – | 24% | – | – | Cell proliferation % in the confront of control [3]: 48%
COc1ccc2c(c1)c(CC(=O)O)c(C)n2C(=O)c1ccc(Cl)cc1 [Indomethacin] | – | – | 70% | 90% | –
CC(=O)Oc1ccccc1C(=O)Oc1cccc(CO[N+](=O)[O-])c1 [NO-Aspirin, 2-acetyloxybenzoic acid 3-nitrooxymethyl phenyl ester] | 600% | – | – | – | –
O=C(Cc1ccccc1Nc1c(Cl)cccc1Cl)OCCCCO[N+](=O)[O-] [NO-Diclofenac, 2-[(2,6-dichlorophenyl)amino]benzenacetic acid 4-nitrooxybutyl ester] | 550% | – | – | – | –
CC(C(=O)OCCCCO[N+](=O)[O-])c1ccc(-c2ccccc2)c(F)c1 (stereo not drawn) [NO-Flurbiprofen, 2-fluoro-alpha-methyl[1,1′-biphenyl]-4-acetic acid 4-nitrooxybutylester] | 650% | 70% | 150% | 10% | Increase of type II collagen mRNA levels [4]: more than 100%
CC(=O)Nc1ccc(OC(=O)CCCO[N+](=O)[O-])cc1 [NO-Paracetamol, 4-nitrooxybutanoic acid 4-acetylaminophenylester] | 350% | – | – | – | AST [8]: 160%; Bilirubin [8]: 136%
COc1ccc2c(c1)c(CC(=O)Oc1cccc(CO[N+](=O)[O-])c1)c(C)n2C(=O)c1ccc(Cl)cc1 [NO-indomethacin, 1-(4-Chlorobenzoyl)-5-methoxy-2-methyl-1H-indole-3-acetic acid 3-(nitrooxymethyl)phenyl ester] | – | – | 130% | 20% | –
CC(=O)Nc1ccc(O)cc1 [Paracetamol] | – | – | – | – | ALT [8]: 171%; AST [8]: 330%; Bilirubin [8]: 200%

Source: US20070010458A1, “Drugs for the arthritis treatment” (priority 2002, published 2007)
